Measured values published in ChEMBL document CHEMBL5113460, “Discovery of dual inhibitors of topoisomerase I and Cyclooxygenase-2 for colon cancer therapy” (Eur J Med Chem, 2022).
Activity calls are given as the source filed them. The rule behind the calls is not given here.

Tests used:
HT-29 [1] = test: Induction of apoptosis in human HT-29 cells assessed as early apoptotic cells at 2 uM incubated for 24 hr by Annexin-V-FITC/PI staining based flow cytometry (Rvb=6.25%); assay type: functional
HT-29 [2] = test: Induction of apoptosis in human HT-29 cells assessed as late apoptotic cells at 2 uM incubated for 24 hr by Annexin-V-FITC/PI staining based flow cytometry (Rvb=8.60%); assay type: functional
HT-29 [3] = test: Antitumor activity against human HT-29 cells xenografted in BALB/c mouse assessed as inhibition of tumor cell proliferation at 30 mg/kg, ip bid for 14 days by Ki67 staining based immunohistochemical analysis (Rvb= 16.61+/-1.05%); assay type: functional; parameters: scale not given: the % may be the effect or the level left; details: time 14 day
HT-29 [4] = test: Antiproliferative activity against human HT-29 cells assessed as inhibition of cell proliferation incubated for 24 to 72 hrs by MTT assay; assay type: functional, cell-based; details: time 24-72 hrs, DDE = dose-dependent effect
[5] = Half life in Sprague-Dawley rat at 100 mg/kg, po and measured upto 24 hrs by LC-MS analysis; assay type: ADME, organism-based; details: in vivo
HT-29 [6] = test: Inhibition of NF-kappaB signalling pathway in human HT-29 cells assessed as decrease in phosphorylated IkappaB level at 2 to 8 uM incubated for 24 hrs by Western blot analysis; assay type: cell-based; details: dose 2-8 µM
HT-29 [7] = test: Induction of apoptosis in human HT-29 cells assessed as increase in Bax protein level at 2 to 8 uM incubated for 24 hrs by western blot analysis; assay type: functional, cell-based; details: dose 2-8 µM
RKO [8] = test: Induction of apoptosis in human RKO cells assessed as necrotic cells at 3 uM incubated for 24 hr by Annexin-V-FITC/PI staining based flow cytometry (Rvb= 0.30%); assay type: functional
HT-29 [9] = test: Induction of apoptosis in human HT-29 cells assessed as necrotic cells at 2 uM incubated for 24 hr by Annexin-V-FITC/PI staining based flow cytometry (Rvb=1.67%); assay type: functional
HT-29 [10] = test: Antitumor activity against human HT-29 cells xenografted in BALB/c mouse assessed as tumor necrosis at 15 to 30 mg/kg, ip bid for 14 days by hematoxylin-eosin staining analysis; assay type: functional, organism-based; details: dose 15-30 mg/kg, time 14.0 day
HT-29 [11] = test: Induction of apoptosis in human HT-29 cells assessed as viable cells at 2 uM incubated for 24 hr by Annexin-V-FITC/PI staining based flow cytometry (Rvb= 83.5%); assay type: functional; details: read-out: Activity
HT-29 [12] = test: Induction of cell cycle arrest in human HT-29 cells assessed as ratio of G1/G0 phase at 2 to 8 uM incubated for 24 hrs by flow cytometry (Rvb= 55.20%); assay type: functional; details: dose 2-8 µM
RKO [13] = test: Induction of apoptosis in human RKO cells assessed as late apoptotic cells at 3 uM incubated for 24 hr by Annexin-V-FITC/PI staining based flow cytometry (Rvb= 4.49%); assay type: functional
[14] = Cmax in Sprague-Dawley rat at 100 mg/kg, po and measured upto 24 hrs by LC-MS analysis; assay type: ADME, organism-based; parameters: time < 24 hrs, dose 100 mg/kg, route po; details: in vivo
[15] = AUC (0-t) in Sprague-Dawley rat at 100 mg/kg, po and measured upto 24 hrs by LC-MS analysis; assay type: ADME, organism-based; parameters: dose 100 mg/kg, time < 24 hrs, route po; details: in vivo
HT-29 [16] = test: Antitumor activity against human HT-29 cells xenografted in BALB/c mouse assessed as inhibition of tumor microvessel density by measuring CD31-index at 15 mg/kg, ip bid for 14 days by immunohistochemical analysis; assay type: functional; details: time 14 day
RKO [17] = test: Induction of DNA damage in human RKO cells assessed as increase in tail length at 3 to 9 uM incubated for 24 hrs by Comet assay; assay type: functional, cell-based; details: dose 3-9 µM
[18] = AUC (0-t) in Sprague-Dawley rat at 30 mg/kg, po and measured upto 12 hrs by LC-MS analysis; assay type: ADME, organism-based; parameters: dose 30 mg/kg, time < 12 hrs, route po; details: in vivo
HT-29 [19] = test: Induction of apoptosis in human HT-29 cells assessed as necrotic cells at 8 uM incubated for 24 hr by Annexin-V-FITC/PI staining based flow cytometry (Rvb=1.67%); assay type: functional
RKO [20] = test: Induction of apoptosis in human RKO cells assessed as late apoptotic cells at 9 uM incubated for 24 hr by Annexin-V-FITC/PI staining based flow cytometry (Rvb= 4.49%); assay type: functional
RKO [21] = test: Induction of apoptosis in human RKO cells assessed as increase in Bax protein level at 3 to 9 uM incubated for 24 hrs by western blot analysis; assay type: functional, cell-based; details: dose 3-9 µM
RKO [22] = test: Inhibition of NF-kappaB signalling pathway in human RKO cells assessed as decrease in phosphorylated NF-kappaB p65 level at 3 to 9 uM incubated for 24 hrs by Western blot analysis; assay type: cell-based; details: dose 3-9 µM
HT-29 [23] = test: Induction of apoptosis in human HT-29 cells assessed as viable cells at 4 uM incubated for 24 hr by Annexin-V-FITC/PI staining based flow cytometry (Rvb= 83.5%); assay type: functional; details: read-out: Activity
RKO [24] = test: Induction of apoptosis in human RKO cells assessed as viable cells at 6 uM incubated for 24 hr by Annexin-V-FITC/PI staining based flow cytometry (Rvb= 87.9%); assay type: functional; details: read-out: Activity
RKO [25] = test: Induction of apoptosis in human RKO cells assessed as necrotic cells at 6 uM incubated for 24 hr by Annexin-V-FITC/PI staining based flow cytometry (Rvb= 0.30%); assay type: functional
RKO [26] = test: Induction of apoptosis in human RKO cells assessed as early apoptotic cells at 6 uM incubated for 24 hr by Annexin-V-FITC/PI staining based flow cytometry (Rvb= 7.27%); assay type: functional
HT-29 [27] = test: Induction of apoptosis in human HT-29 cells assessed as increase in cleaved caspase-9 protein level at 2 to 8 uM incubated for 24 hrs by western blot analysis; assay type: functional, cell-based; details: dose 2-8 µM
HT-29 [28] = test: Induction of apoptosis in human HT-29 cells assessed as early apoptotic cells at 4 uM incubated for 24 hr by Annexin-V-FITC/PI staining based flow cytometry (Rvb=6.25%); assay type: functional
HT-29 [29] = test: Induction of apoptosis in human HT-29 cells assessed as late apoptotic cells at 4 uM incubated for 24 hr by Annexin-V-FITC/PI staining based flow cytometry (Rvb=8.60%); assay type: functional
RKO [30] = test: Induction of apoptosis in human RKO cells assessed as necrotic cells at 9 uM incubated for 24 hr by Annexin-V-FITC/PI staining based flow cytometry (Rvb= 0.30%); assay type: functional
[31] = Cmax in Sprague-Dawley rat at 30 mg/kg, po and measured upto 12 hrs by LC-MS analysis; assay type: ADME, organism-based; parameters: time < 12 hrs, dose 30 mg/kg, route po; details: in vivo
HT-29 [32] = test: Antitumor activity against human HT-29 cells xenografted in BALB/c mouse assessed as inhibition of tumor microvessel density by measuring CD31-index at 30 mg/kg, ip bid for 14 days by immunohistochemical analysis; assay type: functional; details: time 14 day
RKO [33] = test: Induction of apoptosis in human RKO cells assessed as viable cells at 9 uM incubated for 24 hr by Annexin-V-FITC/PI staining based flow cytometry (Rvb= 87.9%); assay type: functional; details: read-out: Activity
LoVo = test: Antitumor activity against human LoVo cells assessed as inhibition of cell proliferation incubated for 72 hrs by MTT assay; assay type: functional, cell-based

## Cc1c(Cl)cccc1Nc1ccccc1C(=O)Nc1ccc(N2CCNCC2)cc1
HT-29 [1]
  Activity: 4.85%
HT-29 [2]
  Activity: 11%
HT-29 [3]
  Activity: 3.27%
HT-29 [4]
  Activity: Dde
[5]
  half-life: 8.87 h
HT-29 [6]
  inhibition: Active
HT-29 [7]
  Activity: Active
RKO [8]
  Activity: 0.46%
HT-29 [9]
  Activity: 1.49%
HT-29 [10]
  Activity: Active
HT-29 [11]
  viability at 2 µM: 82.6%
HT-29 [12]
  Activity: 65.17%
RKO [13]
  Activity: 4.66%
[14]
  Cmax: 2000 ng/mL
[15]
  AUC(0-t) at 24 h: 24800 ng·h/mL
HT-29 [16]
  Inhibition_index: 10.67
RKO [17]
  Activity: Active
[18]
  AUC(0-t) at 12 h: 5410 ng·h/mL
HT-29 [19]
  Activity: 1.05%
RKO [20]
  Activity: 11.2%
RKO [21]
  Activity: Active
RKO [22]
  inhibition: Active
HT-29 [23]
  viability at 4 µM: 80%
RKO [24]
  viability at 6 µM: 81.9%
RKO [25]
  Activity: 0.73%
RKO [26]
  Activity: 10.5%
HT-29 [27]
  Activity: Active
HT-29 [28]
  Activity: 4.95%
HT-29 [29]
  Activity: 14%
RKO [30]
  Activity: 0.59%
[31]
  Cmax: 1600 ng/mL
HT-29 [32]
  Inhibition_index: 6
RKO [33]
  viability at 9 µM: 65.6%
LoVo
  IC50: 4.89 µM
